Format in all cases: cell-based
Assay [1] has as its system UM-UC-14 (FGFR3-S249C) cells. In words: Cell proliferation assay (CellTiterGlo), UM-UC-14 cells. The note with it: inhibition of cell growth, intracellular ATP (CellTiterGlo). From the text: (§1) The following is a non-limiting example that describes a cell proliferation assay used to determine the biological activity of the compounds of the present disclosure. More specifically, the assay as used to assess the ability of the compounds to inhibit cell proliferation.
(§2) Briefly, SNU-16 (FGFR2-amplification) cells, were resuspended at 18,520c/ml mL in RPMI containing 10% Heat Inactivated FBS, 1% L-glutamine and dispensed in duplicate (463c/well) into 384 well plates. UM-UC-14 (FGFR3-S249C) cells were resuspended at 40.000c/ml mL in RPMI containing 10% Heat Inactivated FBS, 1% L-glutamine and dispensed in duplicate (1000c/well) into 384 well plates. DMS-114 (FGFR1 overexpression) cells and were resuspended at 40,000c/ml mL in RPMI containing 10% Heat Inactivated FBS, 1% L-glutamine and dispensed in duplicate (1000c/well) into 384 well plates. RT-112 (FGFR3-Tacc3 fusion) cells were resuspended at 40,000c/ml mL in RPMI containing 10% Heat Inactivated FBS, 1% L-glutamine and dispensed in duplicate (1000c/well) into 384 well plates. To determine the effect of the compounds of the present disclosure on cell proliferation, SNU-16, UM-UC-14, DMS-114 and RT112 cells were incubated for 72 hours in the presence of vehicle control (DMSO) or a compound of the present disclosure at varying concentrations. Inhibition of cell growth was subsequently determined by luminescent quantification (Envision by Perkin Elmer) of intracellular ATP content using CellTiterGlo (Promega), according to the protocol provided by the manufacturer. To determine the IC50 values, the vehicle-treated cells were normalized as viable cells and analyzed using the CDD Vault software (Collaborative Drug Discovery, Burlingame, CA).
For orientation: Cellular ATP, detected with luciferase, serves as a proxy for viable cell number.

For assay [2], the system named is SNU-16 (FGFR2-amplification) cells. In words: Cell proliferation assay (CellTiterGlo), SNU-16 cells. The note with it: inhibition of cell growth, intracellular ATP (CellTiterGlo).
From the text: as §1, §2

Assay [3] deals with DMS-114 (FGFR1 overexpression) cells. In words: Cell proliferation assay (CellTiterGlo), DMS-114 cells. The following applies: 72 hours, inhibition of cell growth, intracellular ATP (CellTiterGlo).
From the text: as §1, §2

Assay [4] has as its system RT-112 (FGFR3-Tacc3 fusion) cells. In words: Cell proliferation assay (CellTiterGlo), RT-112 cells. The following applies: RT112 cells, inhibition of cell growth, intracellular ATP (CellTiterGlo).
From the text: as §1, §2

In assay [5] the test system is UM-UC-14 (FGFR3-S249C) cells. Briefly: cell proliferation assay (CellTiterGlo), UM-UC-14 cells. The note with it: UMUC14, 72 h. The procedure, abridged: (§3)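 Cells were incubated with vehicle (DMSO) or compound over a range of concentrations. Growth inhibition was read by CellTiterGlo luminescence of intracellular ATP. IC50 was derived after normalizing to vehicle-treated cells as viable.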

Assay [6] relates to DMS-114 (FGFR1 overexpression) cells. Briefly: cell proliferation assay (CellTiterGlo), DMS-114 cells. The following applies: Homo sapiens, DMS-114, 72 h. In short, it runs like this:
as §3

The subject of assay [7] is SNU-16 (FGFR2-amplification) cells. Briefly: cell proliferation assay (CellTiterGlo), SNU-16 cells. The following applies: Homo sapiens, 72 hours. In short, it runs like this: as §3
In assay [8] the test system is RT-112 (FGFR3-Tacc3 fusion) cells. Briefly: cell proliferation assay (CellTiterGlo), RT-112 cells. The note with it: Homo sapiens, RT-112, RT112 cells, 72 hours. The procedure, abridged: as §3

pIC50: −log10 of the molar value.

One may read the pIC50 as −log10 of the IC50, conventionally taken in molar units. Read a low pIC50 as a high IC50.

Regarding `Cc1nc2ccc(Oc3ccc4ncc(-c5cnn(CC(O)CO)c5)nc4c3Cl)cc2[nH]1` (centres unmarked) [Compound 22], the pIC50 in assay [1] (UMUC14, 72 h) is 6.40 to 7.00; in assay [2] (Homo sapiens, SNU-16, 72 h) it was 7.00 to 7.70; in assay [3] (Homo sapiens), ≤ 6.40; in assay [4] (Homo sapiens, RT-112, 72 h) it was 7.00 to 7.70.

For `CCC(=O)N1CCC(Cn2cc(-c3cnc4ccc(Oc5ccc6nc(C)[nH]c6c5)c(Cl)c4n3)cn2)CC1` [Compound 25], the pIC50 in assay [1] (UMUC14, 72 h) is 7.00 to 7.70; in assay [2] (Homo sapiens, SNU-16, 72 h), > 7.70; in assay [3] (Homo sapiens), 6.40 to 7.00; in assay [4] (Homo sapiens, RT-112, 72 h), > 7.70.

With `Cc1nc2c(C#N)cc(Oc3ccc4ncc(-c5cnn(CC6CCN(C)CC6)c5)nc4c3Cl)cc2[nH]1` [Compound 41], the pIC50 is 6.40 to 7.00 in assay [1] (UMUC14, 72 h); 6.40 to 7.00 in assay [2] (Homo sapiens, SNU-16, 72 h); ≤ 6.40 in assay [3] (Homo sapiens); 6.40 to 7.00 in assay [4] (Homo sapiens, RT-112, 72 h).

Turning to `Cc1nc2ccc(Oc3ccc4ncc(-c5cnn(CC6CCOCC6)c5)nc4c3Cl)cc2[nH]1` [Compound 59], the pIC50 in assay [1] (72 hours) was > 7.70; in assay [2] (Homo sapiens, SNU-16, 72 h), > 7.70; in assay [3], 6.40 to 7.00; in assay [4] (72 hours), > 7.70.

Turning to `Cc1nc2ccc(Oc3ccc4ncc(-c5cnn(CC6CCN(S(=O)(=O)C7CC7)CC6)c5)nc4c3Cl)cc2[nH]1` [Compound 42], the pIC50 in assay [1] (UMUC14, 72 h) is 7.00 to 7.70; in assay [2] (Homo sapiens, SNU-16, 72 h) it was 7.00 to 7.70; in assay [3] (Homo sapiens), ≤ 6.40; in assay [4] (Homo sapiens, RT-112, 72 h), 7.00 to 7.70.

For `Cc1nc2ccc(Oc3ccc4ncc(-c5cnn(CC6COC6)c5)nc4c3Cl)cc2[nH]1` [Compound 17], the pIC50 in assay [1] (UMUC14, 72 h) is ≤ 6.40; in assay [2] (Homo sapiens, SNU-16, 72 h), ≤ 6.40; in assay [3] (Homo sapiens), ≤ 6.40; in assay [4] (Homo sapiens, RT-112, 72 h), ≤ 6.40.

As to `C=CC(=O)N1CCC(CCn2cc(-c3cnc4ccc(Oc5ccc6nc(C)[nH]c6c5)c(Cl)c4n3)cn2)CC1` [Compound 39], the pIC50 was 7.00 to 7.70 in assay [1] (UMUC14, 72 h); 7.00 to 7.70 in assay [2] (Homo sapiens, SNU-16, 72 h); 6.40 to 7.00 in assay [3] (Homo sapiens); 7.00 to 7.70 in assay [4] (Homo sapiens, RT-112, 72 h).

Regarding `CC(=O)N1CCC(Cn2cc(-c3cnc4ccc(Oc5ccc6nc(C)[nH]c6c5)c(Cl)c4n3)cn2)CC1` [Compound 34], the pIC50 is 7.00 to 7.70 in assay [1] (UMUC14, 72 h); ≤ 6.40 in assay [3] (Homo sapiens); > 7.70 in assay [4] (Homo sapiens, RT-112, 72 h).

Take `C=CC(=O)N1CCC(Cn2cc(-c3cnc4ccc(Oc5ccc6nc(C)[nH]c6c5)cc4n3)cn2)CC1` [Compound 56]: the pIC50 in assay [1] (UMUC14, 72 h) is ≤ 6.40; in assay [3] (Homo sapiens), ≤ 6.40; in assay [4] (Homo sapiens, RT-112, 72 h), 6.40 to 7.00.

`C=CC(=O)N1CCC(CCn2cc(-c3cnc4ccc(Oc5ccc6nc(C)[nH]c6c5)cc4n3)cn2)CC1` [Compound 54]: the pIC50 in assay [1] (UMUC14, 72 h) was 6.40 to 7.00; in assay [3] (Homo sapiens), ≤ 6.40; in assay [4] (Homo sapiens, RT-112, 72 h), 6.40 to 7.00.

Turning to `Cc1nc2ccc(Oc3ccc4ncc(-c5cnn(CC6CCNCC6)c5)nc4c3Cl)cc2[nH]1` [Compound 47], the results for the pIC50 in assay [2] (72 hours), in assay [3] and in assay [4] (72 hours) were 6.40 to 7.00, ≤ 6.40 and 7.00 to 7.70, respectively.

In the case of `Cc1nc2ccc(Oc3ccc4ncc(-c5cnn(CC6CCN(C)CC6)c5)nc4c3)cc2[nH]1` [Compound 57], the pIC50 in assay [1] (UMUC14, 72 h) was 6.40 to 7.00; in assay [3] (Homo sapiens), ≤ 6.40; in assay [4] (Homo sapiens, RT-112, 72 h) it was ≤ 6.40.

Consider `Cc1nc2ccc(Oc3ccc4ncc(-c5cnn(CC6CCOCC6)c5)nc4c3Cl)cc2[nH]1` [Compound 58], for which the pIC50 in assay [1] (UMUC14, 72 h) was 7.00 to 7.70; in assay [3] (Homo sapiens) it was 6.40 to 7.00; in assay [4] (Homo sapiens, RT-112, 72 h), 7.00 to 7.70.

For the molecule `Cc1nc2ccc(Oc3ccc4ncc(-c5cnn(CC6CC(C)OC(C)C6)c5)nc4c3Cl)cc2[nH]1` (centres unmarked) [Compound 1], the pIC50 in assay [2] (Homo sapiens, SNU-16, 72 h) is 7.00 to 7.70; in assay [3] (Homo sapiens) it was 7.00 to 7.70.

Turning to `Cc1nc2ccc(Oc3ccc4ncc(-c5cnn(CCC6CCN(CC(F)(F)F)CC6)c5)nc4c3Cl)cc2[nH]1` [Compound 296], the pIC50 in assay [5] was 7.00 to 7.70; in assay [6], ≤ 6.40; in assay [7], 7.00 to 7.70; in assay [8] it was 7.00 to 7.70.

Regarding `Cc1nc2ccc(Oc3ccc4ncc(-c5cnn(CC6C7COCC76)c5)nc4c3Cl)cc2[nH]1` (centres unmarked) [Compound 365], the negative-log IC50 (pIC50) is 7.00 to 7.70 in assay [5], ≤ 6.40 in assay [6], 7.00 to 7.70 in assay [7] and 7.00 to 7.70 in assay [8].

Regarding `Cc1nc2ccc(Oc3ccc4ncc(-c5cnn(CC6CCS(=O)(=O)CC6)c5)nc4c3Cl)cc2[nH]1` [Compound 385], the pIC50 was 7.00 to 7.70 in assay [5], 6.40 to 7.00 in assay [6], 7.00 to 7.70 in assay [7] and > 7.70 in assay [8].

In the case of `Cc1nc2ccc(Oc3ccc4ncc(-c5cnn(CC6CC(F)(F)C6)c5)nc4c3C3=CC(C)(C)OC3)cc2[nH]1` [Compound 76], the pIC50 in assay [5] was > 7.70; in assay [6], 6.40 to 7.00; in assay [7], > 7.70; in assay [8], > 7.70.

On to `Cc1nc2ccc(Oc3ccc4ncc(-c5cnn(C6CCNC7(CC7)C6)c5)nc4c3Cl)c(F)c2[nH]1` (centres unmarked) [Compound 139], for which the pIC50 was 7.00 to 7.70 in assay [5], 7.00 to 7.70 in assay [6], > 7.70 in assay [7] and > 7.70 in assay [8].

On to `Cc1nc2ccc(Oc3ccc4ncc(-c5cnn(C6CN(C(=O)N7CC(O)C7)C6)c5)nc4c3Cl)cc2[nH]1` [Compound 183], for which the pIC50 in assay [5] was 6.40 to 7.00; in assay [6], ≤ 6.40; in assay [7], 6.40 to 7.00; in assay [8] it was 6.40 to 7.00.

Consider `Cc1nc2ccc(Oc3ccc4ncc(-c5cnn(C6CC(C)(O)C6)c5)nc4c3Cl)cc2[nH]1` (centres unmarked) [Compound 250], for which the pIC50 was 7.00 to 7.70 in assay [5], ≤ 6.40 in assay [6], > 7.70 in assay [7] and > 7.70 in assay [8].

`Cc1nc2ccc(Oc3ccc4ncc(-c5cnn([C@@H](C)C6CC(F)(F)C6)c5)nc4c3Cl)c(F)c2[nH]1` [Compound 108]: the pIC50 was 7.00 to 7.70 in assay [5], 6.40 to 7.00 in assay [6], > 7.70 in assay [7] and 7.00 to 7.70 in assay [8].

For `Cc1nc2ccc(Oc3ccc4ncc(-c5cnn(C[C@H](C)O)c5)nc4c3Cl)cc2[nH]1` [Compound 119], the pIC50 in assay [5] is > 7.70; in assay [6], 6.40 to 7.00; in assay [7] it was 7.00 to 7.70; in assay [8], 7.00 to 7.70.

For the molecule `Cc1nc2ccc(Oc3ccc4ncc(-c5cnn(C6C7CCC6CNC7)c5)nc4c3Cl)cc2[nH]1` (centres unmarked) [Compound 223], the pIC50 is 7.00 to 7.70 in assay [5], 6.40 to 7.00 in assay [6], 7.00 to 7.70 in assay [7] and 7.00 to 7.70 in assay [8].

`Cc1nc2ccc(Oc3ccc4ncc(-c5cnn(CC6CC(F)(F)C6)c5)nc4c3C3=CCN(C(=O)OC(C)(C)C)C3)cc2[nH]1` [Compound 84]: the pIC50 in assay [5] is ≤ 6.40; in assay [6], ≤ 6.40; in assay [7], 6.40 to 7.00; in assay [8], 6.40 to 7.00.

Turning to `Cc1nc2ccc(Oc3ccc4ncc(-c5cnn([C@H]6C[C@H](N7CCOCC7)C6)c5)nc4c3Cl)cc2[nH]1` [Compound 324], the pIC50 in assay [5] was 7.00 to 7.70; in assay [6], ≤ 6.40; in assay [7], 7.00 to 7.70; in assay [8] it was 7.00 to 7.70.

As for `C=C(F)/C=C/n1cc(-c2cnc3ccc(Oc4ccc5nc(C)[nH]c5c4)c(Cl)c3n2)cn1` [Compound 199], the pIC50 in assay [5] was 6.40 to 7.00; in assay [6] it was ≤ 6.40; in assay [7], 6.40 to 7.00; in assay [8] it was 6.40 to 7.00.

In the case of `Cc1nc2ccc(Oc3ccc4ncc(-c5cnn(C[C@@H]6CCS(=O)(=O)C6)c5)nc4c3Cl)cc2[nH]1` [Compound 307], the pIC50 in assay [5] was 7.00 to 7.70; in assay [6], 6.40 to 7.00; in assay [7], > 7.70; in assay [8], > 7.70.

These data come from patent US20240368181A1, “QUINOXALINE DERIVATIVES AND USES THEREOF” (Black Diamond Therapeutics, Inc., priority 2021, published 2024).
